According to patent publication US20100291168A1, “ANTIMICROBIAL FORMULATIONS COMPRISING A COMBINATION OF A PYRIDINE THIOL AND A BIS-QUINOLINIUM SALT” (priority 2007, published 2010):

Assays:
P. acnes NCTC 737 [1] = assay: Minimum Inhibitory Concentration (MIC) assay; type: cell-based, Propionibacterium acnes; conditions: for MIC: anaerobic, 37° C., 72 hours
Description: (§1) The propionibacteria were cultured and maintained on Wilkins-Chalgren Anaerobe Medium (agar and broth) at pH 6.0; all cultures were incubated anaerobically at 37° C. for 72 hours.
(a) Minimum Inhibitory Concentration (MIC) Assay
This is a standard international method for quantitatively assessing the antimicrobial activity of a compound in a liquid medium. The method used a sterile 96-well microtitre plate, capable of holding about 200 μl of liquid per well. The wells contained liquid culture medium and ranges of decreasing concentrations of the relevant test compound in doubling dilutions (eg, 1000, 500, 250, 125 . . . μg/ml, etc. down to 0.49 μg/ml). The culture medium was as described above.
The wells were inoculated with a liquid suspension of freshly grown micro-organism and incubated under the conditions described above. After incubation, the microtitre plate was examined visually (with the aid of a light box) for cloudiness in each well, which would indicate microbial growth. The MIC value was recorded as the lowest concentration of test compound required to inhibit microbial growth, ie, the lowest concentration for which the liquid in the well remained clear.
The assays were conducted in duplicate and included both negative (culture medium with no micro-organisms) and positive (culture medium plus diluting solvent plus micro-organism) controls.
(§2) The following experiments all used P. acnes NCTC 737 as the test organism.
(§3) MIC, MBC and DDA assays, as described above, were carried out using the test compounds (a) dequalinium chloride (DC), dissolved in ethanol and (b) zinc pyrithione (ZP), dissolved in DMSO. Both compounds were sourced from Sigma-Aldrich, UK.
(§4) The general method of Example 1 was repeated using another bis-quinolinium salt, dequalinium iodide (DI), which was also obtained from Sigma-Aldrich, UK. This compound was tested against P. acnes NCTC 737, both alone and in combination with ZP.

P. acnes NCTC 737 [2] = assay: Minimum Bactericidal Concentration (MBC) assay; type: cell-based, Propionibacterium acnes; conditions: for MBC: sub-culture after MIC assay
Description: as §1
(b) Minimum Bactericidal Concentration (MBC) Assay
This assay, normally carried out after an MIC assay, determines the minimum concentration of a compound that is lethal to the micro-organism being tested.
These samples were then individually sub-cultured on antibiotic-free agar medium, under the incubation conditions described above. Following incubation they were examined visually for bacterial growth.
The ratio of MIC to MBC should ideally be as close to 1 as possible.
as §2, §3, §4

P. acnes NCTC 737 [3] = assay: Disc diffusion / synergy disc diffusion assay ((S)DDA); type: cell-based, Propionibacterium acnes
Description: as §1
(c) Disc Diffusion Assay (DDA)
This is an internationally recognised standard method for qualitatively assessing the antimicrobial activity of a compound.
A sterile paper disc was impregnated with a sample of the test compound in a suitable solvent and 30 minutes allowed for the solvents to evaporate (where possible). The disc was then placed on an agar plate onto which the test micro-organism had been inoculated. The plate was then incubated under the conditions described above, following which it was examined visually for signs of microbial growth. […] The diameter of this zone of “inhibition” was measured using a ProtoCOL™ automated zone sizer (Synbiosis, Cambridge, UK).
(d) Synergy Disc Diffusion Assay (SDDA)
This is a variation on the DDA method, in which two compounds are tested together for their combined antimicrobial activity.
Two test compounds A and B were placed on a single paper disc and the above described DDA procedure repeated.
Mixtures of the two test compounds were then subjected to SDDA assays as described above.
For the (S)DDA experiments, 50 μg of the DC was loaded onto each disc, and 200 μg of the ZP. All the (S)DDA experiments were conducted in triplicate.
For the (S)DDA experiments, 50 μg of the DI was loaded onto each disc, and 200 μg of the ZP. The DI and ZP were both dissolved in DMSO.
All the (S)DDA experiments were conducted in triplicate.

P. acnes PRP-002 = type: cell-based, Propionibacterium acnes; conditions: P. acnes PRP-002 (Tet/MLS); 50 μg DC or 200 μg ZP per disc
Description: (§5) Some of these strains have known antibiotic resistance.
(§6) All the experiments were conducted in triplicate.

P. acnes PRP-003 = type: cell-based, Propionibacterium acnes; conditions: P. acnes PRP-003 (Tet); 50 μg DC or 200 μg ZP per disc
Description: as §5, §6

P. acnes PRP-004 = type: cell-based, Propionibacterium acnes; conditions: P. acnes PRP-004 (Tet); 50 μg DC or 200 μg ZP per disc
Description: as §5, §6

P. acnes PRP-008 = type: cell-based, Propionibacterium acnes; conditions: P. acnes PRP-008 (Clin); 50 μg DC or 200 μg ZP per disc
Description: as §5, §6

P. acnes PRP-017 = type: cell-based, Propionibacterium acnes; conditions: P. acnes PRP-017 (MLS); 50 μg DC or 200 μg ZP per disc
Description: as §5, §6

P. acnes PRP-023 = type: cell-based, Propionibacterium acnes; conditions: P. acnes PRP-023 (MLSK); 50 μg DC or 200 μg ZP per disc
Description: as §5, §6

P. acnes PRP-026 = type: cell-based, Propionibacterium acnes; conditions: P. acnes PRP-026 (MLS); 50 μg DC or 200 μg ZP per disc
Description: as §5, §6

P. acnes PRP-053 = type: cell-based, Propionibacterium acnes; conditions: P. acnes PRP-053 (Tet/MLS); 50 μg DC or 200 μg ZP per disc
Description: as §5, §6

P. acnes PRP-059 = type: cell-based, Propionibacterium acnes; conditions: P. acnes PRP-059 (MLS); 50 μg DC or 200 μg ZP per disc
Description: as §5, §6

P. acnes PRP-068 = type: cell-based, Propionibacterium acnes; conditions: P. acnes PRP-068 (Ery); 50 μg DC or 200 μg ZP per disc
Description: as §5, §6

P. acnes PRP-101 = type: cell-based, Propionibacterium acnes; conditions: P. acnes PRP-101 (Tet/MLS); 50 μg DC or 200 μg ZP per disc
Description: as §5, §6

P. acnes PRP-102 = type: cell-based, Propionibacterium acnes; conditions: P. acnes PRP-102 (Tet/MLS); 50 μg DC or 200 μg ZP per disc
Description: as §5, §6

P. granulosum PRP-005 = type: cell-based, Propionibacterium granulosum; conditions: P. granulosum PRP-005 (MLSK); 50 μg DC or 200 μg ZP per disc
Description: as §5, §6

P. granulosum PRP-006 = type: cell-based, Propionibacterium granulosum; conditions: P. granulosum PRP-006 (MLS); 50 μg DC or 200 μg ZP per disc
Description: as §5, §6

P. granulosum PRP-019 = type: cell-based, Propionibacterium granulosum; conditions: P. granulosum PRP-019 (MLSK); 50 μg DC or 200 μg ZP per disc
Description: as §5, §6

P. granulosum PRP-021 = type: cell-based, Propionibacterium granulosum; conditions: P. granulosum PRP-021 (MLS); 50 μg DC or 200 μg ZP per disc
Description: as §5, §6

P. granulosum PRP-043 = type: cell-based, Propionibacterium granulosum; conditions: P. granulosum PRP-043 (MLS); 50 μg DC or 200 μg ZP per disc
Description: as §5, §6

P. granulosum PRP-044 = type: cell-based, Propionibacterium granulosum; conditions: P. granulosum PRP-044 (MLS); 50 μg DC or 200 μg ZP per disc
Description: as §5, §6

P. acnes PRP-007 = assay: (S)DDA; type: cell-based, Propionibacterium acnes; conditions: P. acnes PRP-007 (Clin); 50 μg DC or 200 μg ZP per disc
Description: as §5, §6

P. acnes PRP-046 = assay: (S)DDA; type: cell-based, Propionibacterium acnes; conditions: P. acnes PRP-046 (resistance None); 50 μg DC or 200 μg ZP per disc
Description: as §5, §6

P. acnes PRP-010 = type: cell-based, Propionibacterium acnes; conditions: P. acnes PRP-010 (MLSK); 50 μg DC or 200 μg ZP per disc
Description: (§7) Other propionibacterial strains were also tested, as described in Example 4 below. These included certain antibiotic resistant propionibacteria, such as the two P. acnes strains designated PRP-010 and PRP-039 which are resistant respectively to macrolides-lincosamides-streptogramins-ketolides (MLSK) and to macrolides-lincosamides-streptogramins (MLS) and tetracycline—in other words, PRP-010 is resistant to erythromycin and clindamycin, and PRP-039 to erythromycin, clindamycin and tetracycline.
as §5, §6

P. acnes PRP-039 = type: cell-based, Propionibacterium acnes; conditions: P. acnes PRP-039 (Tet/MLS); 50 μg DC or 200 μg ZP per disc
Description: as §7, §5, §6

P. granulosum NCTC 11865 = assay: (S)DDA; type: cell-based, Propionibacterium granulosum; conditions: P. granulosum NCTC 11865 (resistance None); 50 μg DC or 200 μg ZP per disc
Description: as §5, §6

P. granulosum PRP-055 = assay: (S)DDA; type: cell-based, Propionibacterium granulosum; conditions: P. granulosum PRP-055 (resistance None); 50 μg DC or 200 μg ZP per disc
Description: as §5, §6

[4] = test system: C. difficile ATCC 7000057; assay: (S)DDA; type: cell-based, Clostridium difficile; conditions: 50 μg DC or 200 μg ZP per disc
Description: (§8) The activity of a DC/ZP combination was determined, using (S)DDAs, against two further test micro-organisms, namely C. difficile ATCC 7000057 and Cor. mucifaciens ATCC 700355. A DI/ZP combination was also tested against Cor. mucifaciens.
(§9) In these tests, 50 μg (for C. difficile) or 200 μg (for Cor. mucifaciens) of the DC was loaded onto each disc. The DI and the ZP were both loaded at 200 μg per disc. All the (S)DDA experiments were conducted in triplicate.

[5] = test system: Cor. mucifaciens ATCC 700355; assay: (S)DDA; type: cell-based, Corynebacterium mucifaciens
Description: as §8, §9

[6] = Example 1, zone of inhibition diameter, 50 μg DC or 200 μg ZP per disc
[7] = Example 3, zone of inhibition diameter, 50 μg DI or 200 μg ZP per disc, both in DMSO
[8] = Table 6, 200 μg DC or 200 μg ZP per disc
[9] = Table 7, 200 μg DI or 200 μg ZP per disc

Compound | activity of compound alone (MIC, MBC, DDA data) (P. acnes NCTC 737 [1]) | MIC (P. acnes NCTC 737 [1]) [µg/mL] | MIC/MBC ratio (P. acnes NCTC 737 [2]) | MBC (P. acnes NCTC 737 [2]) [µg/mL] | DDA (P. acnes NCTC 737 [3]; [6]) [mm] | DDA (P. acnes NCTC 737 [3]; [7]) [mm] | DDA (P. acnes PRP-002) [mm] | DDA (P. acnes PRP-003) [mm] | DDA (P. acnes PRP-004) [mm] | DDA (P. acnes PRP-008) [mm] | DDA (P. acnes PRP-017) [mm] | DDA (P. acnes PRP-023) [mm] | DDA (P. acnes PRP-026) [mm] | DDA (P. acnes PRP-053) [mm] | DDA (P. acnes PRP-059) [mm] | DDA (P. acnes PRP-068) [mm] | DDA (P. acnes PRP-101) [mm] | DDA (P. acnes PRP-102) [mm] | DDA (P. granulosum PRP-005) [mm] | DDA (P. granulosum PRP-006) [mm] | also measured
zinc pyrithione [ZP] | active | 0.98 | 0.125 | 7.8 | 15.85 | 46.44 | 25.79 | 26.82 | 12.43 | 14.90 | 19.01 | 17.37 | 16.24 | 29.91 | 16.34 | 14.90 | 14.39 | 16.85 | 20.04 | 32.58 | DDA (P. granulosum PRP-019): 19.73 mm; DDA (P. granulosum PRP-021): 29.70 mm; DDA (P. granulosum PRP-043): 43.37 mm; DDA (P. granulosum PRP-044): 18.50 mm; DDA (P. acnes PRP-007): 10.79 mm; DDA (P. acnes PRP-046): 35.56 mm; DDA (P. acnes PRP-010): 20.96 mm; DDA (P. acnes PRP-039): 29.70 mm; DDA (P. granulosum NCTC 11865): 23.95 mm; DDA (P. granulosum PRP-055): 50.05 mm; DDA [4]: 20.31 mm; DDA [5, 8]: 28.14 mm; DDA [5, 9]: 28.14 mm
Cc1cc(N)c2ccccc2[n+]1CCCCCCCCCC[n+]1c(C)cc(N)c2ccccc21.[Cl-].[Cl-] [DC, dequalinium chloride] | active | 7.8 | 0.5 | 15.6 | 16.68 | – | 20.04 | 21.27 | 20.45 | 19.73 | 17.27 | 19.32 | 19.01 | 21.38 | 19.42 | 20.45 | 16.96 | 21.68 | 20.55 | 26.82 | DDA (P. granulosum PRP-019): 18.91 mm; DDA (P. granulosum PRP-021): 27.95 mm; DDA (P. granulosum PRP-043): 23.02 mm; DDA (P. granulosum PRP-044): 17.37 mm; DDA (P. acnes PRP-007): 18.91 mm; DDA (P. acnes PRP-046): 21.38 mm; DDA (P. acnes PRP-010): 17.37 mm; DDA (P. acnes PRP-039): 28.98 mm; DDA (P. granulosum NCTC 11865): 14.08 mm; DDA (P. granulosum PRP-055): 29.08 mm; DDA [4]: 0.0 mm; DDA [5, 8]: 17.2 mm
Cc1cc(N)c2ccccc2[n+]1CCCCCCCCCC[n+]1c(C)cc(N)c2ccccc21.[I-].[I-] [DI, dequalinium iodide] | active | 3.9 | 0.03 | 125 | – | 21.92 | – | – | – | – | – | – | – | – | – | – | – | – | – | – | DDA [5, 9]: 22.93 mm
